Patent US8735412B2, “Sulfoximine-substituted anilinopyrimidine derivatives as CDK inhibitors, the production thereof, and use as medicine” (Bayer Intellectual Property GmbH, priority 2008, dated 2014)

Key:
CDK1/CycB = target: T1, CDK1/CycB (Homo sapiens, UniProt P06493); experiment: CDK1/CycB kinase assay (Assay 1); assay type: biochemical; conditions: 0.5 μM ATP, histon IIIS substrate; read-out: CDK1/CycB (Assay 1) Concentration for 50% inhibition of enzyme activity, IC50
T1 construct: purchased ProQinase GmbH, Freiburg; host or cells: baculovirus-infected insect cells (Sf9)
Procedure: 10.1 Assay 1: CDK1/CycB Kinase Assay
Recombinant CDK1 and CycB-GST fusion proteins, purified from baculovirus-infected insect cells (Sf9), were purchased from ProQinase GmbH, Freiburg. The histon IIIS used as kinase substrate is commercially available from the company Sigma.
CDK1/CycB (200 ng/measuring point) was incubated for 10 min at 22° C. in the presence of various concentrations of test substances (0 μM, and within the range 0.01-100 μM) in assay buffer [50 mM Tris/HCl pH8.0, 10 mM MgCl2, 0.1 mM Na ortho-vanadate, 1.0 mM dithiothreitol, 0.5 μM adenosine triphosphate (ATP), 10 μg/measuring point histon IIIS, 0.2 μCi/measuring point ^33P-gamma ATP, 0.05% NP40, 1.25% dimethylsulfoxide]. The reaction was stopped by adding EDTA solution (250 mM, pH8.0, 15 μl/measuring point).
(§1) From each reaction mixture, 15 μl was applied to P30 filter strips (from Wallac), and unincorporated ^33P-ATP was removed by washing the filter strips three times, for 10 min each time, in 0.5% phosphoric acid. After drying the filter strips for 1 hour at 70° C., the filter strips were covered with scintillator strips (MeltiLex™ A, from Wallac) and stoved for 1 hour at 90° C. The amount of incorporated ^33P (substrate phosphorylation) was determined by scintillation measurement in a gamma-radiation measuring instrument (Wallac). The measured data were standardized to 0% inhibition (enzyme reaction without inhibitor) and 100% inhibition (all assay components except enzyme). The IC50 values were determined by means of a 4-parameter fit using the company's own software.

[1] = target: T2, VEGF receptor tyrosine kinase-2 (Homo sapiens, UniProt P35968); experiment: VEGF receptor-2 kinase assay (Assay 3); assay type: biochemical; conditions: 8 μM ATP, poly-(Glu4Tyr) substrate; read-out: VEGF-R2 (Assay 3) Concentration for 50% inhibition of enzyme activity, IC50
T2 construct: GST; made in house; host or cells: baculovirus-infected insect cells (Sf9)
Procedure: 10.3 Assay 3: VEGF Receptor-2 Kinase Assay
Recombinant VEGF receptor tyrosine kinase-2 was purified as GST fusion protein from baculovirus-infected insect cells (Sf9). Poly-(Glu4Tyr), used as kinase substrate, was purchased from the company Sigma.
VEGF receptor tyrosine kinase (90 ng/measuring point) was incubated for 10 min at 22° C. in the presence of various concentrations of test substances (0 μM, and within the range 0.001-30 μM) in 30 μl assay buffer [40 mM Tris/HCl pH5.5, 10 mM MgCl2, 1 mM MnCl2, 3 μM Na ortho-vanadate, 1.0 mM dithiothreitol, 8 μM adenosine triphosphate (ATP), 0.96 μg/measuring point poly-(Glu4Tyr), 0.2 μCi/measuring point ^33P-gamma ATP, 1.4% dimethylsulfoxide]. The reaction was stopped by adding EDTA solution (250 mM, pH8.0, 15 μl/measuring point).
as §1

[2] = test system: HeLa-MaTu cervical carcinoma cells; experiment: Proliferation assay (Assay 4), crystal violet staining; assay type: cell-based; conditions: Homo sapiens, 96 h, 4 days incubation; read-out: HeLa-MaTu (Assay 4) Concentration for 50% inhibition of cellular proliferation, IC50
Procedure: 10.4 Assay 4: Proliferation Assay
Cultivated human HeLa-MaTu cervical carcinoma cells (obtained from EPO-GmbH, Berlin) were plated at a density of 3000 cells/measuring point in a 96-well multititer is plate in 200 μl of growth medium (DMEM/HAMS F12, 2 mM L-glutamine, 10% fetal calf serum). After 24 hours the cells of one plate (zero-point plate) were stained with crystal violet (see below), whereas the medium of the other plates was replaced with fresh culture medium (200 μl), to which the test substances had been added at various concentrations (0 μM, and in the range 0.01-30 μM; the final concentration of the solvent dimethylsulfoxide was 0.5%). The cells were incubated for 4 days in the presence of the test substances. Cellular proliferation was determined by staining the cells with crystal violet: the cells were fixed by adding 20 μl/measuring point of an 11% glutaraldehyde solution for 15 min at room temperature. After washing the fixed cells with water three times, the plates were dried at room temperature. The cells were stained by adding 100 μl/measuring point of a 0.1% crystal violet solution (pH adjusted to pH3 by adding acetic acid). After washing the stained cells with water three times, the plates were dried at room temperature. The dye was dissolved by adding 100 μl/measuring point of a 10% acetic acid solution. The extinction was determined photometrically at a wavelength of 595 nm. The percentage change in cell growth was calculated by standardization of the measured values to the extinction values of the zero-point plate (=0%) and the extinction of the untreated (0 μM) cells (=100%). The measured data were standardized to 0% inhibition (cell proliferation without inhibitor) and 100% inhibition (zero-point plate). The IC50 values were determined by means of a 4-parameter fit using the company's own software.

[3] = test system: HeLa-MaTu human cervical carcinoma xenograft; experiment: HeLa-MaTu cervical tumor xenograft model on NMRI nude mice; assay type: in vivo; conditions: oral, 2x daily on day 5, 6, 12, 13, 19, 20
Procedure: HeLa-MaTu (EPO-GmbH, Berlin) human cervical carcinoma cells, which were grown in cell culture, were implanted subcutaneously in the flank of female NMRI nude mice. […] The study was terminated as soon as the tumors in one of the groups reached a size of approx. 150 mm^2.
(§2) The growth-inhibiting effect of the compounds was tested in the HeLa-MaTu cervical tumor model as xenograft on NMRI nude mice. […] Treatment of the established tumors was begun on day 4 after inoculation of the tumors.
as §2, §2
(§3) The study was designed for determining the initial response of a human cervical carcinoma xenograft model to treatments with the 5-Br comparative substance V12. The growth-inhibiting effect of the compounds was tested in the HeLa-MaTu cervical tumor model as xenograft on NMRI nude mice. V12 was dissolved completely in the solubilizer 40% polyethylene glycol 400 (PEG 400)/60% water to a final concentration of 0.7 mg/ml (group 2), 0.85 mg/ml (group 3), or 1.0 mg/ml (group 4). Treatment of the established tumors was begun on day 4 after inoculation of the tumors.
HeLa-MaTu (EPO-GmbH, Berlin) human cervical carcinoma cells, which were grown in cell culture, were implanted subcutaneously in the flank of female NMRI nude mice. […] The study was terminated as soon as the tumors in one of the groups reached a size of approx. 160 mm^2.
(§4) The growth-inhibiting effect of the compounds was tested in the HeLa-MaTu cervical tumor model as xenograft on NMRI nude mice. […] Treatment of the established tumors was begun on day 5 after inoculation of the tumors.
as §4, §4
The following test groups were used: • Group 1: Control, treatment with solubilizer (40% PEG 400/60% water) • Group 2: Compound according to WO 2005/037800 prepared according to preparation V14 disclosed above • (6 mg/kg, oral, 2x daily on day 5, 6, 12, 13, 19, 20) • Group 3: Compound according to WO 2005/037800 prepared according to preparation V14 disclosed above • (8 mg/kg, oral, 2× daily on day 5, 6, 12, 13, 19, 20) • Group 4: Compound according to WO 2005/037800 prepared according to preparation V14 disclosed above • (10 mg/kg, oral, 2× daily on day 5, 6, 12, 13, 19, 20)
as §3, with “substance V14.” for “substance V12.”, “mice. V14” for “mice. V12”, “of 0.6” for “of 0.7”, “2), 0.8” for “2), 0.85”, “day 5” for “day 4”

T1 sequence (P06493 whole entry): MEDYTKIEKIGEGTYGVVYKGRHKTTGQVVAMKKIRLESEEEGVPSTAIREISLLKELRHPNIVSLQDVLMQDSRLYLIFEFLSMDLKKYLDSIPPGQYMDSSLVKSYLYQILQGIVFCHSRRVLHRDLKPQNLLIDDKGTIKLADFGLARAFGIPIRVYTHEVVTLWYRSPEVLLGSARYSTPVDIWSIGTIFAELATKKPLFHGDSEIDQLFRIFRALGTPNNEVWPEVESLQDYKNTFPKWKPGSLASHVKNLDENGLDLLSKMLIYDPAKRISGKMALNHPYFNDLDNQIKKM
T1 sequence (P14635 whole entry partner): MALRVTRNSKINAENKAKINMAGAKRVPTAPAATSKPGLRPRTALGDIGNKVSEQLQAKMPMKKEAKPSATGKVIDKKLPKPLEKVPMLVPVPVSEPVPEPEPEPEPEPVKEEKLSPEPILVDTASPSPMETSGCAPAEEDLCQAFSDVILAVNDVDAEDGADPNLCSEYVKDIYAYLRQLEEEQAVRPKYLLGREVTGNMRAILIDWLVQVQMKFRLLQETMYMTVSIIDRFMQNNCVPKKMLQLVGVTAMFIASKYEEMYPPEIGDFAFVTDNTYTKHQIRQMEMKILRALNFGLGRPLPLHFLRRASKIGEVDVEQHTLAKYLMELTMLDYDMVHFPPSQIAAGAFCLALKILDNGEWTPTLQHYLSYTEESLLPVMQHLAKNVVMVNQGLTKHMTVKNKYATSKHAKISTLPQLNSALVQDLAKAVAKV
T2 sequence (P35968 20-1356): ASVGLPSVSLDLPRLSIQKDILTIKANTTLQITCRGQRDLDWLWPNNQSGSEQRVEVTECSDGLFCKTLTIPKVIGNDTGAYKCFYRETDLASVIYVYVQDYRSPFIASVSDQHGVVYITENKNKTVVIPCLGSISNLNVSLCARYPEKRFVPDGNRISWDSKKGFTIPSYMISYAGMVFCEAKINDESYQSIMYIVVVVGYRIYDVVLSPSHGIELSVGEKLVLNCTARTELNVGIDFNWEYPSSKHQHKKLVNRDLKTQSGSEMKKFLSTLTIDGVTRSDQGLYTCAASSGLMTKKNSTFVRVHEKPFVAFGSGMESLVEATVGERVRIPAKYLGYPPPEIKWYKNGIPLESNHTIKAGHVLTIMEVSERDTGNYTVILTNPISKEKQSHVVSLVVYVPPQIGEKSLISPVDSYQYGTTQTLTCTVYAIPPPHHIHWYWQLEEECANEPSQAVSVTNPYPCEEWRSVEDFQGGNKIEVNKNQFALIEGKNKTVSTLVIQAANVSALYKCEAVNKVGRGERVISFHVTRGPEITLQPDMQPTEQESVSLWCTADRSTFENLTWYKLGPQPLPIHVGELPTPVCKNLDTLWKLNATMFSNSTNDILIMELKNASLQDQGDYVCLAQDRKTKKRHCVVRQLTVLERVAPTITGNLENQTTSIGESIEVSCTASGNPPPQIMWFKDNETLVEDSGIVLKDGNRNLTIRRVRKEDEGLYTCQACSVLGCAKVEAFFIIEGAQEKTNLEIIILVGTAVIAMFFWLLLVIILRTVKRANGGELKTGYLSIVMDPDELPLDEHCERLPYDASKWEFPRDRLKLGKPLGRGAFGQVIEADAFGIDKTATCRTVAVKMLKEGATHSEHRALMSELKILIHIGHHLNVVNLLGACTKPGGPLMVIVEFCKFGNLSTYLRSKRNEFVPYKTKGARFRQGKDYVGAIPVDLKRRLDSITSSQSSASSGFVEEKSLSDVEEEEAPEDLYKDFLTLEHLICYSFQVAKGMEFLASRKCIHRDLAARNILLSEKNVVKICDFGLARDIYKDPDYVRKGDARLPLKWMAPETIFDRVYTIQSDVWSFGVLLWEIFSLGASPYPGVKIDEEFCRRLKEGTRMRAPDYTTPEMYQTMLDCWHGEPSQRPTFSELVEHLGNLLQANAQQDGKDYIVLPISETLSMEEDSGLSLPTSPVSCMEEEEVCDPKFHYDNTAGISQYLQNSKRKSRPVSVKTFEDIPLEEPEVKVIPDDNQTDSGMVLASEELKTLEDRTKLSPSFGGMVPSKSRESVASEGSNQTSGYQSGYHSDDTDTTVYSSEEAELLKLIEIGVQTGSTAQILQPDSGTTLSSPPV

## C[C@@H](O)[C@@H](C)Oc1nc(Nc2ccc(S(C)(=N)=O)cc2)ncc1Br (stereo partly shown) [Example V13]
CDK1/CycB
  IC50: 3 nM
[1]
  IC50: 140 nM
[2]
  IC50: 9 nM
[3]; 10 mg/kg (group 4), day 20
  reduction of tumor weight at the end of the study to % of the control group: 23%
[3]; 10 mg/kg
  tolerability of the cyclic treatment regimen: well-tolerated
[3]; 6, 8, 10 mg/kg
  effect on tumor growth (in words): dose-dependent inhibition of tumor growth
[3]; Mus musculus, 480 h, 10 mg/kg (group 4), day 20, read-out: treatment/control ratio T/C (tumor weight)
  response vs control in vivo at 10 mg/kg: 23%
